Where two headings read alike, the source gives them in different places. Marks after values point to notes of the source that are not given here.
How the values were obtained:
CYP3A4 [1] = target: T1, CYP3A4 (Homo sapiens, UniProt P08684, S18F); conditions: read-out: Km of 10,11-epoxide formation; ref [26], [89]; cited from earlier work
CYP3A4 [2] = target: CYP3A4 (Homo sapiens, UniProt P08684); conditions: for Km at 2 min: human, fit to eq 1
CYP3A4 [3] = target: T1, CYP3A4
CYP3A4 [4] = target: T1, CYP3A4; assay: Absorbance difference titrations of recombinant CYP3A4 with MDZ and CBZ
CYP3A4 [5] = target: T1, CYP3A4; remark: listed apart in the source
CYP3A4 [6] = target: T1, CYP3A4; conditions: read-out: experimental KM for 1′-OH-MDZ formation; ref [23], [86]–[88]; cited from earlier work
[7] = target: recombinant human cytochrome P450 3A4 (CYP3A4 NF14 construct) (human) (UniProt P08684); assay: SEC
[8] = 260 μM Carbamazepine alone, 1 μM CYP3A4
[9] = 260 μM Carbamazepine alone, 1 μM CYP3A4, chemical equivalence (eq 7)
[10] = 260 μM Carbamazepine alone, 1 μM CYP3A4, eq 6
[11] = 260 μM Midazolam alone, 1 μM CYP3A4
[12] = 260 μM Midazolam alone, 1 μM CYP3A4, eq 6
[13] = 260 μM Midazolam with 260 μM Carbamazepine bound simultaneously, 1 μM CYP3A4

## NC(=O)N1c2ccccc2C=Cc2ccccc21 [CBZ, carbamazepine]
CYP3A4 [1]
  Km: 119 to 442 µM
CYP3A4 [2]; low [MDZ], 240 μM CBZ
  effect of CBZ on 1′-OH-MDZ and 4-OH-MDZ formation: competitively inhibit
CYP3A4 [2]; saturating CBZ (240 μM), near saturating MDZ
  effect of CBZ on 1′-OH-MDZ formation: only partially inhibited
CYP3A4 [3]; 260 μM CBZ, 1 μM CYP3A4 (33% HS without ligands)
  %HS of CYP3A4 heme: 34%
CYP3A4 [4]; CBZ alone, fit to eq 3
  Amax of the CBZ titration curve: 0.0049 ± 0.0007 µM⁻¹ cm⁻¹
CYP3A4 [5]; [8]
  RFe2+-CO, proton peak aa′: 1.67 ± 0.11 s⁻¹
  RFe2+-CO, proton peak bb′: 1.54 ± 0.09 s⁻¹
  RFe2+-CO, proton peak cc′: 1.59 ± 0.10 s⁻¹
  RFe2+-CO, proton peak dd′: 1.47 ± 0.09 s⁻¹
  RFe2+-CO, proton peak ee′: 1.52 ± 0.09 s⁻¹
  RFe3+, proton peak aa′: 2.44 ± 0.24 s⁻¹
  RFe3+, proton peak bb′: 2.56 ± 0.33 s⁻¹
  RFe3+, proton peak cc′: 2.38 ± 0.23 s⁻¹
  RFe3+, proton peak dd′: 2.50 ± 0.25 s⁻¹
  RFe3+, proton peak ee′: 2.22 ± 0.20 s⁻¹
  RP, proton peak aa′: 0.77 ± 0.26 s⁻¹
  RP, proton peak bb′: 1.03 ± 0.34 s⁻¹
  RP, proton peak cc′: 0.79 ± 0.25 s⁻¹
  RP, proton peak dd′: 1.03 ± 0.26 s⁻¹
  RP, proton peak ee′: 0.71 ± 0.22 s⁻¹
CYP3A4 [5]; [9]
  rmin, proton peak aa′: 7.02±0.40 ^b Å
  rmin, proton peak bb′: 6.69±0.38 ^b Å
  rmin, proton peak cc′: 6.98±0.37 ^b Å
  rmin, proton peak dd′: 6.69±0.29 ^b Å
  rmin, proton peak ee′: 7.12±0.37 ^b Å
CYP3A4 [5]; [10]
  rapp, proton peak bb′: 7.51±0.42 Å
  rapp, proton peak cc′: 7.84±0.41 Å
  rapp, proton peak dd′: 7.51±0.33 Å
  rapp, proton peak ee′: 7.99±0.41 Å
CYP3A4 [5]; CBZ alone
  calculated proton-heme distances on average: 7–8 Å
  variation in the proton RPs: 30%
CYP3A4 [5]; in the presence of MDZ
  RP of CBZ protons: < 0.04

## Cc1ncc2n1-c1ccc(Cl)cc1C(c1ccccc1F)=NC2 [MDZ, midazolam]
CYP3A4 [6]
  Km: 5 to 11 µM
CYP3A4 [2]; absence of CBZ
  [MDZ] at which velocity of 1′-OH-MDZ formation reaches a maximum: 25 µM
CYP3A4 [2]; pH 7.4, Km of 1′-OH-MDZ formation, presence of 240 μM CBZ
  Km at 2 min: 12.5 ± 2.1 µM
CYP3A4 [2]; pH 7.4, Km of 4-OH-MDZ formation, absence of CBZ
  Km at 2 min: 47.5 ± 6.8 µM
CYP3A4 [2]; pH 7.4, Km of 4-OH-MDZ formation, presence of 240 μM CBZ
  Km at 2 min: 57.7 ± 2.1 µM
CYP3A4 [3]; 260 μM MDZ and 260 μM CBZ together, 1 μM CYP3A4
  %HS of CYP3A4 heme: 55%
CYP3A4 [3]; 260 μM MDZ, 1 μM CYP3A4 (33% HS without ligands)
  %HS of CYP3A4 heme: 70%
CYP3A4 [4]; 120 μM CBZ
  Δε at 100 μM MDZ in the titration curve: ~ 0.015 μM^−1 cm^−1
CYP3A4 [4]; absence of CBZ
  Amax of the MDZ titration curve: 0.0342 ± 0.0083 µM⁻¹ cm⁻¹
CYP3A4 [4]; human, pH 7.4
  Kd: 70.6 ± 29 µM
CYP3A4 [4]; no CBZ
  Δε at 100 μM MDZ in the titration curve: ~ 0.025 μM^−1 cm^−1
CYP3A4 [5]; [11]
  RFe2+-CO, proton peak 1′: 1.53 ± 0.04 s⁻¹
  RFe2+-CO, proton peak 3: 1.45 ± 0.18 s⁻¹
  RFe2+-CO, proton peak 3F: 1.46 ± 0.20 s⁻¹
  RFe2+-CO, proton peak 4F: 1.91 ± 0.07 s⁻¹
  RFe2+-CO, proton peak 5F: 1.72 ± 0.10 s⁻¹
  RFe2+-CO, proton peak 6F: 1.83 ± 0.11 s⁻¹
  RFe2+-CO, proton peak 7: 1.67 ± 0.09 s⁻¹
  RFe2+-CO, proton peak 9: 1.65 ± 0.12 s⁻¹
  RFe2+-CO, proton peak 10: 1.81 ± 0.11 s⁻¹
  RFe3+, proton peak 1′: 2.18 ± 0.02 s⁻¹
  RFe3+, proton peak 3: 1.88 ± 0.04 s⁻¹
  RFe3+, proton peak 3F: 1.60 ± 0.07 s⁻¹
  RFe3+, proton peak 4F: 1.85 ± 0.04 s⁻¹
  RFe3+, proton peak 5F: 2.17 ± 0.06 s⁻¹
  RFe3+, proton peak 6F: 1.88 ± 0.05 s⁻¹
  RFe3+, proton peak 7: 1.81 ± 0.05 s⁻¹
  RFe3+, proton peak 9: 2.97 ± 0.17 s⁻¹
  RFe3+, proton peak 10: 2.85 ± 0.06 s⁻¹
  RP, proton peak 1′: 0.65 ± 0.05 s⁻¹
  RP, proton peak 3: 0.43 ± 0.18 s⁻¹
  RP, proton peak 3F: 0.14 ± 0.21 s⁻¹
  RP, proton peak 4F: -0.06 ± 0.08 s⁻¹
  RP, proton peak 5F: 0.45 ± 0.11 s⁻¹
  RP, proton peak 6F: 0.05 ± 0.12 s⁻¹
  RP, proton peak 7: 0.14 ± 0.10 s⁻¹
  RP, proton peak 9: 1.31 ± 0.20 s⁻¹
  RP, proton peak 10: 1.03 ± 0.12 s⁻¹
CYP3A4 [5]; 260 μM Midazolam alone, 1 μM CYP3A4, calculated using the highest RP
  rmin, proton peak 4F: 17.02 ^c Å
CYP3A4 [5]; 260 μM Midazolam alone, 1 μM CYP3A4, chemical equivalence (eq 7)
  rmin, proton peak 1′: 7.62±0.18 ^b Å
CYP3A4 [5]; [12]
  rapp, proton peak 1′: 9.15±0.22 Å
  rapp, proton peak 3: 9.79±0.71 Å
  rapp, proton peak 3F: 11.84±2.95 Å
  rapp, proton peak 5F: 9.75±0.46 Å
  rapp, proton peak 6F: 14.13±6.01 Å
  rapp, proton peak 7: 11.83±1.50 Å
  rapp, proton peak 9: 8.14±0.27 Å
  rapp, proton peak 10: 8.47±0.24 Å
CYP3A4 [5]; [13]
  RFe2+-CO, proton peak 1′: 1.57 ± 0.04 s⁻¹
  RFe2+-CO, proton peak 3: 1.44 ± 0.12 s⁻¹
  RFe2+-CO, proton peak 3F: 1.54 ± 0.18 s⁻¹
  RFe2+-CO, proton peak 4F: ~ 1 sec^−1
  RFe2+-CO, proton peak 5F: 1.16 ± 0.19 s⁻¹
  RFe2+-CO, proton peak 6F: 1.76 ± 0.13 s⁻¹
  RFe2+-CO, proton peak 7: 1.41 ± 0.06 s⁻¹
  RFe2+-CO, proton peak 9: 1.26 ± 0.07 s⁻¹
  RFe2+-CO, proton peak 10: 1.76 ± 0.09 s⁻¹
  RFe3+, proton peak 1′: 2.13 ± 0.04 s⁻¹
  RFe3+, proton peak 3: 1.82 ± 0.06 s⁻¹
  RFe3+, proton peak 3F: 2.04 ± 0.05 s⁻¹
  RFe3+, proton peak 4F: 1.08 ± 0.05 s⁻¹
  RFe3+, proton peak 5F: 1.05 ± 0.04 s⁻¹
  RFe3+, proton peak 6F: 1.69 ± 0.24 s⁻¹
  RFe3+, proton peak 7: 1.70 ± 0.05 s⁻¹
  RFe3+, proton peak 9: 2.37 ± 0.07 s⁻¹
  RFe3+, proton peak 10: 2.69 ± 0.06 s⁻¹
  RP, proton peak 1′: 0.56 ± 0.06 s⁻¹
  RP, proton peak 3: 0.38 ± 0.13 s⁻¹
  RP, proton peak 3F: 0.50 ± 0.19 s⁻¹
  RP, proton peak 4F: 0.07 ± 0.12 s⁻¹
  RP, proton peak 5F: -0.11 ± 0.19 s⁻¹
  RP, proton peak 6F: -0.07 ± 0.27 s⁻¹
  RP, proton peak 7: 0.29 ± 0.08 s⁻¹
  RP, proton peak 9: 1.11 ± 0.10 s⁻¹
  RP, proton peak 10: 0.93 ± 0.11 s⁻¹
CYP3A4 [5]; MDZ alone
  average RP of the fluorophenyl protons: 0.15 s⁻¹
CYP3A4 [5]; MDZ alone, calculated from RPs
  average distance of chlorophenyl group from heme: ~ 10 Å
  average distance of fluorophenyl group from heme: ~ 13 Å
CYP3A4 [5]; MDZ alone, depending on the orientation
  distance of 1′-CH3 from heme: 7.6–9.2 Å
CYP3A4 [5]; MDZ in the presence of CBZ
  average RP of the fluorophenyl protons: 0.1 s⁻¹

## recombinant human cytochrome P450 3A4 (CYP3A4 NF14 construct) (from UniProt P08684 1-503) (enzyme)
[7]
  stoichiometry N: 4

From article PMC3828125 (Biochemistry, 2011)
